Experimental data as given in patent EP4745124A1, “NAPHTHALIMIDE-BASED CORONAVIRUS PAPAIN-LIKE PROTEASE INHIBITOR” (Guangzhou National Laboratory, priority 2023, dated 2025).

Key:
SARS-CoV-2 WT = test: Anti-viral activity evaluation in SARS-CoV-2 infected Vero-E6 cell model (qRT-PCR viral copy numbers); assay type: cell-based; settings: Severe acute respiratory syndrome coronavirus 2, Vero C1008, 48 h, read-out: SARS-Cov-2 WT EC50 (µM)
SARS-Cov-2 XBB.1 = test: microbe, parasite or virus in culture; assay type: cell-based; settings: Severe acute respiratory syndrome coronavirus 2, Vero C1008, 48 h, read-out: SARS-Cov-2 XBB.1 EC50 (µM)
SARS-Cov-2 Omicron BA.5 = test: microbe, parasite or virus in culture; assay type: cell-based; settings: Severe acute respiratory syndrome coronavirus 2, Vero C1008, 48 h, read-out: SARS-Cov-2 Omicron BA.5 EC50 (µM)
[1] = Routine pharmacokinetic (PK) test in rats, oral gavage; assay type: in vivo; settings: rat, 5 mg/kg, plasma
Method: Solvent formula: 10% DMSO, 5% ethanol, 5% Cremophor EL and 80% deionized water. […] Measure 1.316 mL of DMSO, vortex for 1 minute, and sonicate for 10 minutes to obtain a 5 mg/mL clear DMSO stock solution.
Take 1 mL of 5 mg/mL DMSO stock solution, add 0.5 mL of ethanol, vortex for 1 minute, add 0.5 mL of Cremophor EL, vortex for 1 minute, and finally add 8 mL of deionized water, vortex for 1 minute to obtain a clear administration formulation with a concentration of 0.5 mg/mL. Prepare it immediately before use and store it at room temperature after preparation.
Oral gavage administration, with the route of administration consistent with the intended clinical route of administration.
Oral sampling: There were a total of 8 collection time points, at 0.25, 0.5, 1, 2, 4, 6, 8 and 24 hours after administration.
Plasma: After euthanasia of the animals, blood was drawn by puncture. The samples were placed in tubes containing K2-EDTA and stored on ice until centrifugation. Within 1 hour after blood collection, the samples were centrifuged at 6800 g for 6 minutes at 2-8°C to obtain plasma samples, which were then frozen and stored at approximately -80°C.
Analyze the compound. While analyzing the sample, utilize quality control samples to evaluate the intra-day accuracy of the analytical batch.
When calculating pharmacokinetic parameters, the BLQ concentration data before the time to reach peak concentration (Tmax) in the oral administration group are calculated as "0", and BLQ concentration data after Tmax are excluded from all calculations.
The non-compartmental model statistical moment method using Phoenix WinNonlin® 7.0 software was employed to calculate the following main pharmacokinetic parameters: Tmax, Cmax, AUC(0-t), T1/2, etc.
1) Take 30 µL of mixed standard curve samples, quality control samples, blank samples, zero concentration samples, and test samples. 2) For standard curve samples, quality control samples, zero concentration samples and test samples, add 300 µL of internal standard working solution (containing 100 ng/mL IS). For blank samples, ULOQ without IS samples (if necessary), add the same volume of acetonitrile. 3) Vortex mix for 1 minute 4) Centrifuge at 4°C for 7 minutes (18,000g) 5) Take 200 µL of the supernatant to the corresponding wells of a 96-well injection plate. 6) Inject 4µL of sample for LC-MS/MS analysis. Table 4 Pharmacokinetic data of compounds after oral administration in vivo

[2] = clearance proportion
[3] = clearance proportion; remark: listed apart in the source

## Cc1ccc(N2CCN(C)CC2)cc1C(=O)NC1(c2ccc3c4c(cccc24)C(=O)N3C)CC1 [Compound P1, 2-Methyl-N-(1-(1-methyl-2-oxo-1,2-dihydrobenzo[cd]indol-6-yl)cyclopropyl)-5-(4-methylpiperazin-1-yl)benzamide]
SARS-CoV-2 WT
  EC50: 0.1 to 1 µM
SARS-Cov-2 XBB.1
  EC50: 0.1 to 1 µM
SARS-Cov-2 Omicron BA.5
  EC50: 0.1 to 1 µM
[1]
  AUC(0-t): 3390 ng·h/mL
  Cmax: 393 ng/mL
  Tmax: 3 h
  half-life: 3 h
[2]
  Rat Eh (%): 37.3%
[3]
  Human Eh (%): 77%
